Patent publication US20140073607A1, “COMPOUNDS FOR USE IN THE TREATMENT OF FELINE RETROVIRAL INFECTIONS” (OKAPI SCIENCES NV, priority 2011, published 2014)
In brackets after ≈: the same amount, converted by molar mass.

Columns and labels:
FeLV [1] = assay: Inhibition of FeLV replication in CrFK cells co-infected with FeLV and FIV (p27 ELISA and RT-qPCR); assay type: cell-based; settings: CrFK cells co-infected with FeLV and FIV-Ut113, six days; mean ± SD of three independent assays
Experimental: (§1) The compounds were dissolved in a 0.05 N sodium hydroxide solution at a concentration of 10 mg/ml. Reference compounds PMEDAP and PMEA were dissolved in a sodium bicarbonate buffer at a concentration of 10 mg/ml.
(§2) Crandell Reese Feline kidney (CrFK) cells were grown in Dulbecco minimum essential medium (DMEM, Life Technologies) containing 1% sodium bicarbonate (Life Technologies) and 5% fetal calf serum (FCS, Biochrom). In a 96-well plate 5000 CrFK cells were seeded and incubated for 24 h at 37° C. in a humid atmosphere containing 5% CO2. Subsequently cells were washed with 100 μl phosphate buffered saline (PBS) containing 50 μg/ml DEAE-dextran and co-infected with 100 CCID50 FeLV and 100 CCID50 FIV-Ut113 in presence of increasing doses of the compounds (0.4; 2; 10 and 50 μg/ml). After 2 h of incubation allowing the virus to enter the cells, the supernatant was removed and the cells were washed with PBS. […] The cells were incubated for six days when viral supernatant was collected and analyzed by ELISA for FeLV p27 and FIV p24 antigen production and real time RT-qPCR for FeLV and FIV RNA production. […] Subsequently the amount of FIV p24 was detected by a monoclonal biotinylated antibody 5E6D11 followed by a colorimetric reaction which is based on extravidin peroxidase (Sigma) and OPD substrate (Sigma).

FeLV [2] = assay: Inhibition of FeLV replication in CrFK cell culture (p27 ELISA and RT-qPCR); assay type: cell-based; settings: CrFK cells, 100 CCID50 FeLV, six days, mean ± SD of three independent assays
Experimental: The compounds were dissolved in a 0.05 N sodium hydroxide solution at a concentration of 10 mg/ml. Crandell Reese Feline kidney (CrFK) cells were grown in Dulbecco minimum essential medium (DMEM, Life Technologies) containing 1% sodium bicarbonate (Life Technologies) and 5% fetal calf serum (FCS, Biochrom). In a 96-well plate 5000 CrFK cells were seeded and incubated for 24 h at 37° C. in a humid atmosphere containing 5% CO2. Subsequently cells were washed with 100 μl phosphate buffered saline (PBS) containing 50 μg/ml DEAE-dextran and inoculated with 100 CCID50 FeLV in presence of increasing doses of the compounds (0.4; 2; 10 and 50 μg/ml). After 2 h of incubation allowing the virus to enter the cells, the supernatant was removed and the cells were washed with PBS. DMEM including 5% FCS and containing increasing doses of the compounds were added to the infected cells. Infected cells without compounds were included as positive controls (virus control) and uninfected cells were included as negative controls (cell control). The cells were incubated for six days when viral supernatant was collected and analyzed by enzyme-linked immunosorbent assay (ELISA) for FeLV p27 antigen production and real time RT-qPCR for FeLV RNA production. […]

FeLV [3] = assay: Treatment of cats naturally infected with FeLV; assay type: in vivo, cat
FIV-Ut113 = assay: Inhibition of FIV replication in CrFK cells co-infected with FeLV and FIV (p24 ELISA and RT-qPCR); assay type: cell-based; settings: CrFK cells co-infected with FeLV and FIV-Ut113, six days; mean ± SD of three independent assays
Experimental: as §1, §2

FIV [4] = assay: Treatment of clinically ill cats naturally infected with FIV; assay type: in vivo, cat
Experimental: The compounds were dissolved to a concentration ranging between 50 and 250 mg/mL in an appropriate aqueous buffered sodium hydroxide solution close to neutral pH conditions (pH between 6 and 9).
The formulated compounds were administered via the subcutaneous route at least once weekly at total dose rates ranging between 10 and 175 mg/kg per week. Treatment duration was between 1 week and 3 months.
The results of the treatment of cats with specific symptoms are discussed below. • Cats with oral signs. • Oral signs can present themselves as, but are not limited to, stomatitis, gingivitis, faucitis, glossitis, periodontitis, gingivostomatitis, ulcerations of the tonsils and tongue, salivation etc. […] Spontaneous bleeding was no longer observed and the bloody red inflammation diminished to a slightly pinkish observation. No other treatment was given concomitantly. • Cats with high viral load • FIV, as a retrovirus, reverse transcribes its viral RNA genome into proviral DNA which is subsequently inserted into the genome of its host. […] Reduction of viral load is important in controlling FIV infection in the cat. […] The graphs in FIGS. 1A, B and C represent the viral load pre and post treatment with the compounds in three different cats. No other treatment was given concomitantly. • Lethargic and emaciated cat, with severe weight loss • The FIV-positive cat was presented to the veterinarian with the following clinical signs: lethargy, emaciation, difficulty to walk, unable to jump up/off a chair, no desire to go outdoors, prolonged sleeping patterns. Prognosis was to euthanize the cat. • Treatment with the compounds was initiated and within a matter of weeks, the cat returned to normal, gained weight (0.6 kg), walked and played around, stayed outdoors for several consecutive days. […] No other treatment was given concomitantly. • Cat with lymphadenopathy (swollen/enlarged lymph nodes) • A male FIV-positive cat with swollen Lnn. poplitei (score 4; severity is scored on a scale from 0 to 10 with 0 representing a normal clinical picture and 10 being the most severe manifestation) was treated with the compounds. Within two weeks the swelling went down to a score of 2. At the end of the 6-week treatment period with the compounds a score of 1 was noted; 0 representing a normal clinical picture. […] Before treatment the Lnn. poplitei were swollen (score 2). Two weeks into treatment the lymphnodes returned to normal (score 0) which was maintained throughout the 6-week treatment period with the compounds. • Similar observations were made for two FIV-positive cats. When treatment was initiated the Lnn. mandibulares were swollen (score 2 and 3, respectively). The returned to normal (score 0) by the end of the 6-week treatment with the compounds. • Cat with inflammation of the eye • A female FIV-positive cat suffered from chronic inflammation of the eye before treatment with the compounds was initiated despite concurrent antibacterial treatment. […] No other treatment was given concomitantly. One week following treatment the cat was able to sit up straight and eat on its own. Treatment was continued for another four weeks after which the cat was able to walk, climb up and down stairs, and eat on its own. […] The Karnofsky's score has proven its validity in cats to assess and compare the efficacy of antiviral compounds (Hartmann et al., J Acquir Immune Defic Syndr Hum Retrovirol 1998). Table 4 summarizes the Karnofsky's score of two FIV-positive cats before, during and post treatment with the compounds. No other treatment was given concomitantly.

FIV and FeLV = assay: Treatment of cats naturally co-infected with FIV and FeLV; assay type: in vivo; settings: cat co-infected with FIV and FeLV, pre versus post treatment (FIG. 2); no other treatment
Experimental: The compounds were dissolved in an appropriate aqueous buffered sodium hydroxide solution (at concentration ranging between 50 and 250 mg/ml and close to neutral pH conditions (pH between 6 and 9). The formulated compounds were administered via the subcutaneous route at least once weekly at total dose rates ranging between 10 and 175 mg/kg per week. Treatment duration was between 1 week and 3 months.
FIV and FeLV, as retroviruses, reverse transcribe their viral RNA genome into proviral DNA which is subsequently inserted into the genome of its host. […] Reduction of viral load is important in controlling FIV/FeLV infection in the cat. […] The graph in FIG. 2 represents the viral load pre and post treatment with the compounds in a cat co-infected with FIV and FeLV. No other treatment was given concomitantly.

FIV [5] = settings: FIV-infected cats, Hartmann et al. 1998; cited from earlier work
[6] = FIV-positive cat A, 50% before treatment
[7] = FIV-positive cat B, 30.5% before treatment

Compound: CC(Cn1cnc2c(N)nc(N)nc21)OCP(=O)(O)O (centres unmarked) [R-PMPDAP, 9-(2-phosphonylmethoxypropyl)-2,6-diaminopurine]
- EC50 FeLV ELISA (p27) (FeLV [1]): 0.062 ± 0.010 µg/mL (≈ 0.205 µM)
- EC50 FeLV RT-qPCR (FeLV [1]): 0.095 ± 0.050 µg/mL (≈ 0.314 µM)
- EC50 of FeLV replication, RT-qPCR (FeLV [2]; FeLV RNA in supernatant): 0.039 ± 0.024 µg/mL
- EC50 of FeLV replication, p27 ELISA (FeLV [2]; p27 antigen in supernatant): 0.030 ± 0.006 µg/mL
- FeLV viral load after treatment (FeLV [3]; female FeLV-positive viremic cat, RT-qPCR, decreased from 15500): 3200 FeLV virions per mL plasma
- Karnofsky's score at the end of the 3-week treatment period (FeLV [3]; male FeLV-positive cat with clinical signs, 58.5% before treatment): 80%
- FeLV associated clinical signs following treatment (FeLV [3]; male FeLV-positive cat with oral inflammation, lymphadenopathy, diarrhea): the clinical signs ameliorated
- EC50 FIV ELISA (p24) (FIV-Ut113): 0.332 ± 0.035 µg/mL (≈ 1.1 µM)
- EC50 FIV RT-qPCR (FIV-Ut113): 0.258 ± 0.024 µg/mL (≈ 0.854 µM)
- Karnofsky's score, 1 month post cessation of treatment (FIV [4]; [6]): 90%
- Karnofsky's score, during treatment (FIV [4]; [6]): 70%
- Karnofsky's score, end of treatment (FIV [4]; [6]): 90%
- Karnofsky's score, 1 month post cessation of treatment (FIV [4]; [7]): 35%
- Karnofsky's score, during treatment (FIV [4]; [7]): 50%
- Karnofsky's score, end of treatment (FIV [4]; [7]): 50%
- Stomatitis upon treatment (FIV [4]; FIV-positive cat with severe caudal stomatitis and buccostomatitis, subcutaneous, 10-175 mg/kg per week, no other treatment): the stomatitis decreased significantly
- Gingivitis upon treatment (FIV [4]; FIV-positive cat with severe gingivitis with spontaneous bleeding, subcutaneous, no other treatment): the gingivitis decreased significantly
- Viral load (FIV virions per mL plasma) (FIV [4]; FIV-positive cats, pre versus post treatment, three cats (FIG. 1A, B, C)): significantly reduce the viral load
- Chronic inflammation of the eye following treatment (FIV [4]; female FIV-positive cat, concurrent antibacterial treatment): on its way to full recovery
- Swelling score of Lnn. poplitei (FIV [4]; female FIV-positive cat, score 2 before treatment, scale 0 to 10, two weeks into treatment, maintained throughout 6 weeks): 0
- Weight gained (FIV [4]; lethargic, emaciated FIV-positive cat with severe weight loss, within a matter of weeks): 0.6 kg
- General condition (FIV [4]; lethargic, emaciated FIV-positive cat, prognosis was to euthanize, within a matter of weeks): general condition returned to normal
- Swelling score of Lnn. poplitei (FIV [4]; male FIV-positive cat, score 4 before treatment, scale 0 to 10, end of the 6-week treatment period): 1
- Swelling score of Lnn. poplitei (FIV [4]; male FIV-positive cat, score 4 before treatment, scale 0 to 10, within two weeks): 2
- Neurological symptoms (acute paresis of left front and hind legs) (FIV [4]; male FIV-positive cat, shortly after five weeks of treatment, no other treatment): A full recovery was observed
- Feces (chronic daily diarrhea) (FIV [4]; male FIV-positive cat, within two weeks): returned to normal within two weeks
- Swelling score of Lnn. mandibulares (FIV [4]; two FIV-positive cats, score 2 and 3 at start, scale 0 to 10, end of the 6-week treatment): 0
- Viral load (FIV/FeLV virions per mL plasma) (FIV and FeLV): significantly reduce the viral load

Compound: Nc1ncnc2c1ncn2CCOCP(=O)(O)O [PMEA, 9-(2-phosphonylmethoxyethyl)adenine, reference compound]
- Effect on FIV load (FIV [5]): did not decrease the FIV load
- Improvement in Karnofsky's score (FIV [5]): 10%

Compound: Nc1ncnc2c1ncn2C[C@@H](CF)OCP(=O)(O)O [FPMPA, (S)-9-(3-fluoro-2-phosphonylmethoxypropyl)adenine]
- Effect on FIV load (FIV [5]): reduced the FIV load
- Improvement in Karnofsky's score (FIV [5]): 3.8%
